Assay [1] deals with T1, AHR (Homo sapiens, UniProt P35869).
T1 sequence (P35869 11-848): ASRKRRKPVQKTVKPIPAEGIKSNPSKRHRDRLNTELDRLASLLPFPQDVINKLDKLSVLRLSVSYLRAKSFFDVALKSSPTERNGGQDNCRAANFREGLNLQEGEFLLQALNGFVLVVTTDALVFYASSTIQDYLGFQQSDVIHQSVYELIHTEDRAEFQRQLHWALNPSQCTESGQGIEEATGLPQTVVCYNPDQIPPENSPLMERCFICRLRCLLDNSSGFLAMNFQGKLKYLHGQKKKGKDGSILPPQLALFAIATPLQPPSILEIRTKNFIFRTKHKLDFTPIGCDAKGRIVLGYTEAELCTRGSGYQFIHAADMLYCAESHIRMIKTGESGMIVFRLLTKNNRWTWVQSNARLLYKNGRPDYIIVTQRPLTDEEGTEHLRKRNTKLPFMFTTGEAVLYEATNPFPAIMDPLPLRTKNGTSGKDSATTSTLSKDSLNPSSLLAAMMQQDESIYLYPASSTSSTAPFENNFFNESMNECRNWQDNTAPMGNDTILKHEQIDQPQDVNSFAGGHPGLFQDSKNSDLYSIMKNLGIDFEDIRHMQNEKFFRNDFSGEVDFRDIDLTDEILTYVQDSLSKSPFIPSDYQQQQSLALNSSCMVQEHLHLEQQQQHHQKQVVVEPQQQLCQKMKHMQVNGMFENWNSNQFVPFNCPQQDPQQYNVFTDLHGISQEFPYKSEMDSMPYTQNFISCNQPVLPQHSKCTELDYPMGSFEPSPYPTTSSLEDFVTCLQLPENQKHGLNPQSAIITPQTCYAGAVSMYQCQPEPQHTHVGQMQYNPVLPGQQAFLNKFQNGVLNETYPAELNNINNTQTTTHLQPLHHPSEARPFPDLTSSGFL
Put plainly: In vitro assay 1: antagonism in human cell line (transactivation assay, U87 cells prestimulated with kynurenic acid, DRE firefly luciferase reporter). The class given is cell-based. More on the design: host or cells: U87 glioblastoma cells, stably transfected with DRE firefly luciferase and renilla reporter constructs. Particulars: 150 uM kynurenic acid, 20 hours, read-out: Assay 1: AHR-luc Hum Antagonism IC50. Here is the method: (§1) Transactivation Assay in Human Cell Line (In Vitro Assays 1 and 2)
(§2) Transactivation assays were carried out in U87 glioblastoma cells (ATCC) endogenously expressing AHR. In addition the cells were stably transfected with an AHR inducible firefly luciferase reporter gene construct that carried AHR-binding sites (DRE) in its promoter and a renilla reporter gene construct with constitutively active promoter. Kynurenic acid is an endogenous AHR activating ligand and was used to prestimulate test cells prior to testing the antagonistic properties of compounds.
In Vitro Assay 1: Antagonism in Human Cell Line
Normalization was done by positive and negative controls.
On the technique in general: In a reporter assay the amount or activity of a reporter protein is the signal.

Assay [2] has as its target T1, AHR. Put plainly: In vitro assay 2: agonism in human cell line (transactivation assay, U87 cells, DRE firefly luciferase reporter). It is filed as cell-based. More on the design: host or cells: U87 glioblastoma cells, stably transfected with DRE firefly luciferase and renilla reporter constructs. The note with it: no kynurenic acid, 20 hours, read-out: Assay 2: AHR-luc Hum Agonism IC50. Here is the method: as §1, §2
In Vitro Assay 2: Agonism in Human Cell Line
As positive activation control cells were incubated with 300 uM kynurenic acid. Normalization was done by positive and negative controls.

Here are results for 21 molecules from patent US12522594B2, “2-heteroaryl-3-oxo-2,3-dihydropyridazine-4-carboxamides for the treatment of cancer” (Deutsches Krebsforschungszentrum, priority 2017, dated 2026).

Molecules are shown by their SMILES.

As to `Cn1cc(-n2nc(-c3ccc(OC(F)(F)F)cc3)cc(C(=O)N[C@@H]3COC[C@@H]3O)c2=O)cn1` (racemic) [Example 55, N-[(cis)-4-Hydroxytetrahydrofuran-3-yl]-2-(1-methyl-1H-pyrazol-4-yl)-3-oxo-6-[4-(trifluoromethoxy)phenyl]-2,3-dihydropyridazine-4-carboxamide], the IC50 (as a rule, the concentration that inhibits the measured activity by half) was 0.0179 µM at AHR [1] and > 20 µM at AHR [2].
Take `Cc1cc(-n2nc(-c3ccc(Cl)cc3)cc(C(=O)NCC(C)(C)O)c2=O)cs1` [Example 246, 6-(4-Chlorophenyl)-N-(2-hydroxy-2-methylpropyl)-2-(5-methyl-3-thienyl)-3-oxo-2,3-dihydropyridazine-4-carboxamide]: the results for the IC50 on AHR [1] and on AHR [2] were 0.0132 µM and > 20 µM, respectively.
`CC(C)(O)C(NC(=O)c1cc(-c2ccc(Cl)cc2)nn(-c2cccnc2)c1=O)C(F)(F)F` (centres unmarked) [Example 121, 6-(4-Chlorophenyl)-3-oxo-2-(pyridin-3-yl)-N-(1,1,1-trifluoro-3-hydroxy-3-methylbutan-2-yl)-2,3-dihydropyridazine-4-carboxamide]: the values for the IC50 at AHR [1] and on AHR [2] were 0.00254 µM and > 20 µM, respectively.
For the molecule `Cn1cc(-n2nc(-c3ccc(OC(F)(F)F)cc3)cc(C(=O)N[C@@H]3COC[C@@H]3O)c2=O)cn1` (single isomer, unassigned; enantiomer 2) [Example 57, N-[(cis)-4-Hydroxytetrahydrofuran-3-yl]-2-(1-methyl-1H-pyrazol-4-yl)-3-oxo-6-[4-(trifluoromethoxy)phenyl]-2,3-dihydropyridazine-4-carboxamide, Enantiomer 2], the IC50 at AHR [1] was 0.00748 µM; on AHR [2], > 20 µM.
For `O=C(N[C@H]1CCCC[C@H]1O)c1cc(-c2ccc(Cl)cc2)nn(-c2cncc(F)c2)c1=O` [Example 124, 6-(4-Chlorophenyl)-2-(5-fluoropyridin-3-yl)-N-[(1S,2R)-2-hydroxycyclohexyl]-3-oxo-2,3-dihydropyridazine-4-carboxamide] the same measures were 0.00364 µM and > 20 µM.
For `COC[C@@H](CO)NC(=O)c1cc(-c2ccc(Cl)cc2)nn(-c2cccnc2)c1=O` [Example 75, (−)-6-(4-Chlorophenyl)-N-[(2R)-1-hydroxy-3-methoxypropan-2-yl]-3-oxo-2-(pyridin-3-yl)-2,3-dihydropyridazine-4-carboxamide], the IC50 on AHR [1] is 0.0834 µM; on AHR [2], > 20 µM.
On the same counts, the results for `C[C@@H](CO)NC(=O)c1cc(-c2ccc(Cl)cc2)nn(-c2csc(Cl)c2)c1=O` [Example 243, 6-(4-Chlorophenyl)-2-(5-chloro-3-thienyl)-N-[(2S)-1-hydroxypropan-2-yl]-3-oxo-2,3-dihydropyridazine-4-carboxamide] are 0.0118 µM and > 20 µM.
For `O=C(NC[C@H](O)C(F)(F)F)c1cc(-c2ccc(Cl)cc2)nn(-c2cnsc2)c1=O` [Example 199, 6-(4-Chlorophenyl)-3-oxo-2-(1,2-thiazol-4-yl)-N-[(2S)-3,3,3-trifluoro-2-hydroxypropyl]-2,3-dihydropyridazine-4-carboxamide] the same measures were 0.000694 µM and > 20 µM.
For `O=C(NC[C@H](O)C(F)(F)F)c1cc(-c2ccc(Cl)cc2)nn(-c2cncc(F)c2)c1=O` [Example 128, 6-(4-Chlorophenyl)-2-(5-fluoropyridin-3-yl)-3-oxo-N-[(2S)-3,3,3-trifluoro-2-hydroxypropyl]-2,3-dihydropyridazine-4-carboxamide], the 50% inhibitory concentration (IC50) at AHR [1] is 0.00505 µM; at AHR [2], > 20 µM.
As to `Cn1cc(-n2nc(-c3ccc(Cl)cc3)cc(C(=O)NC(CO)C(F)(F)F)c2=O)cn1` (racemic) [Example 33, 6-(4-Chlorophenyl)-2-(1-methyl-1H-pyrazol-4-yl)-3-oxo-N-[(2RS)-1,1,1-trifluoro-3-hydroxypropan-2-yl]-2,3-dihydropyridazine-4-carboxamide], the figures for the half-maximal inhibitory concentration (IC50) on AHR [1] and at AHR [2] were 0.00266 µM and > 20 µM, respectively.
Take `CC(C)(O)C(NC(=O)c1cc(-c2ccc(Cl)cc2)nn(-c2cncnc2)c1=O)C(F)(F)F` (centres unmarked) [Example 185, 6-(4-Chlorophenyl)-3-oxo-2-(pyrimidin-5-yl)-N-(1,1,1-trifluoro-3-hydroxy-3-methylbutan-2-yl)-2,3-dihydropyridazine-4-carboxamide]: the figures for the IC50 at AHR [1] and on AHR [2] were 0.0371 µM and > 20 µM, respectively.
On to `O=C(N[C@@H]1CC[C@@H]1O)c1cc(-c2ccc(C(F)(F)F)cc2)nn(-c2cccnc2)c1=O` (single isomer, unassigned) [Example 268, (−)-N-cis-2-Hydroxycyclo-butyl-3-oxo-2-(pyridin-3-yl)-6-[4-(trifluoromethyl)phenyl]-2,3-dihydropyridazine-4-carboxamide], for which the IC50 at AHR [1] was 0.0569 µM; on AHR [2], > 20 µM.
For `Cn1cc(-n2nc(-c3ccc(Cl)cc3)cc(C(=O)NC(CO)CO)c2=O)cn1` [Example 31, 6-(4-Chlorophenyl)-N-(1,3-dihydroxypropan-2-yl)-2-(1-methyl-1H-pyrazol-4-yl)-3-oxo-2,3-dihydropyridazine-4-carboxamide], the IC50 at AHR [1] is 0.244 µM; on AHR [2] it was > 20 µM.
Regarding `O=C(N[C@H]1CCCC[C@H]1O)c1cc(-c2ccc(C(F)(F)F)cc2)nn(-c2cccnc2)c1=O` [Example 106, N-[(1S,2R)-2-Hydroxycyclohexyl]-3-oxo-2-(pyridin-3-yl)-6-[4-(trifluoromethyl)phenyl]-2,3-dihydropyridazine-4-carboxamide], the 50% inhibitory concentration (IC50) on AHR [2] was > 20 µM.
As to `O=C(N[C@H]1CCC[C@H]1O)c1cc(-c2ccc(Cl)cc2)nn(-c2cncc(F)c2)c1=O` [Example 129, 6-(4-Chlorophenyl)-2-(5-fluoropyridin-3-yl)-N-[(1S,2R)-2-hydroxycyclopentyl]-3-oxo-2,3-dihydropyridazine-4-carboxamide], the IC50 on AHR [1] is 0.00553 µM; on AHR [2], > 20 µM.
As for `O=C(N[C@H]1COC[C@@H]1O)c1cc(-c2ccc(Cl)cc2)nn(-c2cccnc2)c1=O` (relative stereo) [Example 168, 6-(4-Chlorophenyl)-N-[(trans)-4-hydroxytetrahydrofuran-3-yl]-3-oxo-2-(pyridin-3-yl)-2,3-dihydropyridazine-4-carboxamide], on AHR [1], the 50% inhibitory concentration (IC50) was 0.24 µM.
As to `O=C(N[C@@H]1COC[C@@H]1O)c1cc(-c2ccc(C(F)(F)F)cc2)nn(-c2cccnc2)c1=O` (single isomer, unassigned) [Example 252, (−)-N-cis-4-Hydroxytetra-hydrofuran-3-yl-3-oxo-2-(pyridin-3-yl)-6-[4-(trifluoromethyl)phenyl]-2,3-dihydropyridazine-4-carboxamide], the half-maximal inhibitory concentration (IC50) on AHR [1] amounted to 0.018 µM.
Regarding `CC(NC(=O)c1cc(-c2ccc(Cl)cc2)nn(-c2cccnc2)c1=O)C(O)C(F)(F)F` (single isomer, unassigned) [Example 300, 6-(4-Chlorophenyl)-3-oxo-2-(pyridin-3-yl)-N-(4,4,4-trifluoro-3-hydroxybutan-2-yl)-2,3-dihydropyridazine-4-carboxamide], on AHR [2], the concentration for half-maximal inhibition (IC50) is > 20 µM.
For the molecule `O=C(NC[C@H](O)C(F)(F)F)c1cc(-c2ccc(C(F)(F)F)cc2)nn(-c2cccnc2)c1=O` [Example 117, 3-Oxo-2-(pyridin-3-yl)-N-[(2S)-3,3,3-trifluoro-2-hydroxypropyl]-6-[4-(trifluoromethyl)phenyl]-2,3-dihydropyridazine-4-carboxamide], the IC50 at AHR [2] was > 20 µM.
In the case of `C[C@@H](CO)NC(=O)c1cc(-c2ccc(C(F)(F)F)nc2)nn(-c2cccnc2)c1=O` [Example 166, N-[(2S)-1-Hydroxypropan-2-yl]-3-oxo-2-(pyridin-3-yl)-6-[6-(trifluoromethyl)pyridin-3-yl]-2,3-dihydropyridazine-4-carboxamide], at AHR [1], the half-maximal inhibitory concentration (IC50) turned out to be 0.18 µM.
For `O=C(NCC(O)C(F)(F)F)c1cc(-c2ccc(C(F)(F)F)cc2)nn(-c2cccnc2)c1=O` (racemic) [Example 108, 3-Oxo-2-(pyridin-3-yl)-N-[(2RS)-3,3,3-trifluoro-2-hydroxypropyl]-6-[4-(trifluoromethyl)phenyl]-2,3-dihydropyridazine-4-carboxamide], the IC50 at AHR [2] was > 20 µM.
